Source: US20070172423A1, “Composition and method for modulating vasculogenesis for angiogenesis” (priority 1998, published 2007)

Columns and labels:
[1] = system: protease in AG1523 medium processing full-length PDGF-C; assay: Protease inhibitor analysis of PDGF-C processing by AG1523 medium; type: biochemical, human; conditions: AG1523 serum-free medium, 37° C. overnight, immunoblot
Method: To elucidate the mechanism of the proteolysis of PDGF-C a protease inhibitor analysis was conducted. Various protease inhibitors (see Table 1, source: Sigma) were pre-incubated with 0.9 ml of AG1523 serum-free medium at room temperature for 30 minutes, then incubated with 0.2 ml of recombinant full-length PDGF-C (Sf9 serum-free medium) at 37° C. overnight. TCA-precipitated proteins were subjected to SDS-page under reducing conditions and then immunoblotted. Recombinant PDGF-C was detected using an anti-His6 epitope monoclonal antibody (C-terminal) (InVitrogen).

[2] = system: bovine aorta endothelial cells (BAEC); assay: Cell migration assay, BAEC; type: cell-based; conditions: wounded monolayer, 20 hours, serum-free medium
Method: (§1) Cell migration assays were performed on growth arrested confluent HMVEC, BAEC or hSMC cells. Cell monolayers were wounded with a rubber policeman and washed with serum-free medium. Dishes were then incubated for 20 hours in serum-free medium containing VEGF165, PDGF-AA, (R&D Systems, Minneapolis USA) or PDGF-CC. Each assay included two dishes per condition and was repeated three times independently. Cells were photographed at 40× magnification, and migration percentage corresponding to the ratio between area of the cells and the total area of the wound (Biocom visiol@b 2000 version 4.52, San Diego). For HMVEC proliferation assay, cells were seeded in 96-well plates (5 wells per condition), and incubated with VEGF, PDGF-AA, or PDGF-CC (50 ng/ml) after serum starvation. After 7 days, viable cells were counted using the cell Titer-glo luminescent cell viability assay. For NIH-3T3 and hSMC proliferation assay, cells cultured in 96-well plates were serum-starved overnight, followed by treatment with growth factors at different concentrations. Two days later, cell numbers were counted and proliferation percentage calculated, using cells cultured in medium containing 10% serum as control. Aortic ring assay was performed as described 51. […] Aortic rings were analysed at day 9 of culturing. […]

HMVEC = HMVEC proliferation assay; type: cell-based, human; conditions: 50 ng/ml, 7 days
Method: as §1

aortic rings = assay: Aortic ring assay; type: cell-based; conditions: for number of sprouting microvessels: day 9 of culturing, versus control
Method: Cell migration assays were performed on growth arrested confluent HMVEC, BAEC or hSMC cells. Cell monolayers were wounded with a rubber policeman and washed with serum-free medium. Dishes were then incubated for 20 hours in serum-free medium containing VEGF165, PDGF-AA, (R&D Systems, Minneapolis USA) or PDGF-CC. Each assay included two dishes per condition and was repeated three times independently. Cells were photographed at 40× magnification, and migration percentage corresponding to the ratio between area of the cells and the total area of the wound (Biocom visiol@b 2000 version 4.52, San Diego). For HMVEC proliferation assay, cells were seeded in 96-well plates (5 wells per condition), and incubated with VEGF, PDGF-AA, or PDGF-CC (50 ng/ml) after serum starvation. After 7 days, viable cells were counted using the cell Titer-glo luminescent cell viability assay. For NIH-3T3 and hSMC proliferation assay, cells cultured in 96-well plates were serum-starved overnight, followed by treatment with growth factors at different concentrations. Two days later, cell numbers were counted and proliferation percentage calculated, using cells cultured in medium containing 10% serum as control. Aortic ring assay was performed as described 51. Briefly, one-millimeter long aortic rings were embedded in gels of rat tail interstitial collagen and cultured at 37° C., supplemented with different growth factors (50 ng/ml). Aortic rings were analysed at day 9 of culturing. Experiments included three explants per condition and were repeated at least twice. Aortic rings were photographed at 25× magnification.
Although PDGFR-α is expressed on endothelial cells (Edelberg et al., Journal of Clinical Investigation, 1998 102:837-43; Smits et al., Growth Factors, 1989 2:1-8; Bar et al., Endocrinology, 1989 124:1841-8; Beitz et al., Proc Natl Acad Sci USA, 1991 88:2021-5; Marx et al., J Clin Invest, 1994 93:131-9; Shinbrot et al., Dev. Dyn., 1994 199:169-175), little is known about the functional consequence of PDGFR-α signaling in these cells. […] We also tested the effect of PDGF-CC on cultured aortic rings, as this assay allows assessment of the outgrowth of microvessels from an intact vessel in vitro (Blacher et al., Angiogenesis, 2001 4:133-42). Results are graphically represented as the number of microvessels and the distance over which they grew out from the aortic ring. Each experiment included three explants per condition and was repeated at least twice. At day 9 after culturing, microvessels and the distance of their outgrowth were quantified and evaluated using Student's t test. In baseline conditions, only a small number of microvessels sprouted from the aortic rings—most of them over very short distances (0.25 mm from the aortic ring)—and only a small fraction (<5%) growing out over longer distances (>0.5 mm from the aortic ring, FIG. 41a). VEGF increased not only the number of sprouting microvessels (P<0.001 at all concentrations versus control), but also the distance over which they grew out (P<0.05 at all concentrations versus control; FIG. 41b,f). At 30 ng/ml, PDGF-CC increased the number of microvessels (P<0.001 versus control, FIG. 41e,g) and increased the distance of vessel outgrowth at 5 ng/ml (P<0.01 versus control, FIG. 41g). […] A similar bell-shaped dose-response relationship has been documented for other members of the VEGF/PDGF-superfamily (Jin et al., J Mol Neurosci, 2000 14:197-203). PDGF-AA, however, had no effect on the number of microvessels, although it increased the distance of vessel outgrowth at 5 ng/ml (P<0.01 versus control, FIG. 41h). Thus, PDGF-CC mobilized EC migration in cultured cells and promoted microvessel sprouting in the aortic ring assay.
The mitogenic and chemotactic effect of PDGF-CC was then tested on SMCs and perivascular fibroblast cells, and the effect of PDGF-CC was compared to that of VEGF and PDGF-AA in both cultured cells and the aortic ring assay (Blacher et al., Angiogenesis, 2001 4:133-42). […]

hSMC [3] = assay: Cell migration assay, hSMC; type: cell-based, human; conditions: wounded monolayer, 20 hours
Method: as §1, with “For HMVEC proliferation assay, cells were seeded in 96-well plates (5 wells per condition), and incubated with VEGF, PDGF-AA, or PDGF-CC (50 ng/ml) after serum starvation.” left out, “For NIH-3T3 and hSMC proliferation assay, cells cultured in 96-well plates were serum-starved overnight, followed by treatment with growth factors at different concentrations.” left out, “control.” for “control. Aortic ring assay was performed as described 51.”
The mitogenic and chemotactic effect of PDGF-CC was then tested on SMCs and perivascular fibroblast cells, and the effect of PDGF-CC was compared to that of VEGF and PDGF-AA in both cultured cells and the aortic ring assay (Blacher et al., Angiogenesis, 2001 4:133-42). […] In the aortic ring assay, we quantified the growth and emigration of perivascular fibroblasts from the intact vessel using computer-assisted image analysis after treatment with VEGF and different PDGFs at different concentrations. […]

NIH-3T3 fibroblast cells = assay: NIH-3T3 proliferation assay; type: cell-based; conditions: two days, different concentrations
Method: as §1

hSMC [4] = assay: hSMC proliferation assay; type: cell-based, human; conditions: two days, different concentrations
Method: as §1

[5] = biological target: T1, human PDGF receptor alpha (Homo sapiens, UniProt P16234); assay: Competition with 125I-PDGF-BB for binding to PAE-1 cells expressing PDGF alpha-receptor; conditions: 5 ng/ml 125I-PDGF-BB tracer, on ice 90 minutes
T1 construct: expressed in transfected cells
T1 sequence (P16234 24-1089): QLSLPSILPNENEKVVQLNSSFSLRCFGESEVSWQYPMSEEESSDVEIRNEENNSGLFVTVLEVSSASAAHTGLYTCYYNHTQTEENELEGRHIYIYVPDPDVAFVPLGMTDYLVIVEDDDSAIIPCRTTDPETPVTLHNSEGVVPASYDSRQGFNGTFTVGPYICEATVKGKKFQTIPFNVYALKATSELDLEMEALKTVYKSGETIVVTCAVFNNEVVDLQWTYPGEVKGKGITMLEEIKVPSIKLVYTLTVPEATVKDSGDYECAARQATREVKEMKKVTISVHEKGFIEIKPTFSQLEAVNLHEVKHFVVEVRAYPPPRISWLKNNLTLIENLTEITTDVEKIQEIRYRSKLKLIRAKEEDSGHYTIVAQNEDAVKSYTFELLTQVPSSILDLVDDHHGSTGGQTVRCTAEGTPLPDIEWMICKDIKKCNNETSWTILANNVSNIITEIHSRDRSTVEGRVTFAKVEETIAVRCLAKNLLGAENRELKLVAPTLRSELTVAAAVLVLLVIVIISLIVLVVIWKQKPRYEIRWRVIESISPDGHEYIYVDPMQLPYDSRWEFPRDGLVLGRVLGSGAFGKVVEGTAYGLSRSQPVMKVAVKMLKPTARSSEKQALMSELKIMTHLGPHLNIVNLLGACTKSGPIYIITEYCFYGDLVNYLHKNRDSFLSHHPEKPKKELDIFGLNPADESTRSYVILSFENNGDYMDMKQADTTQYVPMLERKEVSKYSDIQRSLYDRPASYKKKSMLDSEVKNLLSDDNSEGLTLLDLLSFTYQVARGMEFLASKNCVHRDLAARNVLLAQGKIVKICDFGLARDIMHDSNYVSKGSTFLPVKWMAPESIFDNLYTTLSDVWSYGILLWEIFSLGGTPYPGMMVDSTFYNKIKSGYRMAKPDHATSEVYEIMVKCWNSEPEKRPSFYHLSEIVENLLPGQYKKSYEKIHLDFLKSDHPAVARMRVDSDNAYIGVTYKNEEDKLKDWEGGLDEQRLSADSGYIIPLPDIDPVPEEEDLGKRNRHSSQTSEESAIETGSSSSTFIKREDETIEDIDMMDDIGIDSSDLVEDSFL
Method: Next, full length and truncated PDGF-C were tested for their capacity to bind to human PDGF receptors alpha and beta by analyzing their abilities to compete with PDGF-BB for binding to PDGF receptors. The binding experiments were performed on porcine aortic endothelial-1 (PAE-1) cells stably expressing the human PDGF receptors alpha and beta (Eriksson et al., EMBO J, 1992, 11, 543-550). Binding experiments were performed essentially as in Heldin et al. (EMBO J, 1988, 7:1387-1393). Different concentrations of human full-length and truncated PDGF-C, or human PDGF-BB were mixed with 5 ng/ml of ^125I-PDGF-BB in binding buffer (PBS containing 1 mg/ml of bovine serum albumin). Aliquots were incubated with the receptor expressing PAE-1 cells plated in 24-well culture dishes on ice for 90 minutes. After three washes with binding buffer, cell-bound 125]-PDGF-BB was extracted by lysis of cells in 20 mM Tris-HCl, pH 7.5, 10% glycerol, 1% Triton X-100. The amount of cell bound radioactivity was determined in a gamma-counter. A standard curve for the binding of ^125I-labeled PDGF BB homodimers to PAE-1 cells expressing PDGF alpha-receptor is shown in FIG. 18.

[6] = system: human bone marrow-derived AC133+CD34+ cells; assay: Human bone marrow cell adherence and differentiation assay; type: cell-based; conditions: 50 ng/ml
Method: Enriched human BM derived AC133+CD34+ cells (Clonetics) at 10^5/ml were cultured for 3 days in HPGM (Clonetics) in a 6-well plate (Becton Dickinson). Cells were then seeded in collagen coated 12-well plates in EBM (Clonetics) medium containing 4% FCS and VEGF165 (R&D Systems) or PDGF-CC (50 ng/ml each). Growth factors were added every two days and media were refreshed at 75% every four days. For adherence assay, 2.5×10^4 of non-adherent cells/ml were cultured in the same condition on chamber slides coated with collagen, or in 96-well plate coated with 0.3% gelatin in PBS. Cells were then washed three times with PBS, fixed and stained with May-Grünwald Giemsa (Sigma) after two weeks of culture on chamber slides (Becton Dickinson). The number of viable cells was estimated by ATP quantification using cellTiter-glo luminescent cell viability assay (Promega) according to the manufacturer's instructions. For cell surface marker staining, cells (2×10^4/well) cultured on collagen-coated culture slides for two or four weeks were fixed (45 min, 25° C.) and permeabilized (45 min, 25° C.) using a Intrastain Kit (DAKO), and then labeled with CD31-FITC (Becton Dickinson), CD144-FITC (Pharmingen), CD34-FITC (Becton Dickinson) or SMC-Actin CY3 (Sigma). Single or double-labeled cells were analyzed using laser confocal immunofluorescence microscopy.
Upon stimulation by growth factors or cytokines, bone marrow stem/progenitor cells can differentiate into ECs and SMCs and thereby contribute to angio/arteriogenesis (Orlic et al., Nature, 2001 410:701-5; Kawamoto et al., Circulation, 2001 103:634-7; Asahara et al., Circ Res, 1999 85:221-8). The potential role of PDGF-CC in the differentiation of bone marrow progenitors into vascular cells has, however, not been investigated thus far. We therefore cultured human bone marrow-derived AC133^+CD34^+ cells—a population enriched for stem/progenitor cells (Miraglia et al., Blood, 1997 90:5013-21; Yu et al., J Biol Chem, 2002 277:20711-6; Donnelly et al., Leuk Lymphoma, 2001 40:221-34)—and stimulated them with PDGF-CC, using VEGF as a control (50 ng/ml each).

[7] = system: human microvascular endothelial cells (HMVEC); assay: Cell migration assay, HMVEC; type: cell-based; conditions: wounded monolayer, 20 hours, serum-free medium
Method: as §1

**Q.** How did the “inhibition of proteolytic processing of full-length PDGF-C” value [1] turn out when Aprotinin was run?
**A.** capacity to inhibit

**Q.** What does the source list for “PDGF-AA: PDGF A-chain homodimer (R&D Systems), PDGFR-α ligand used as control”?
**A.** migration of BAEC [2]: no effect; EC proliferation (HMVEC): no effect; distance of vessel outgrowth (aortic rings; 5 ng/ml, day 9, versus control): increased; number and emigration of perivascular fibroblast-like cells (aortic rings; day 9, versus control): intermediate effect; number of sprouting microvessels (aortic rings): no effect; hSMC migration (hSMC [3]): stimulated; proliferation of cultured NIH-3T3 fibroblast cells (NIH-3T3 fibroblast cells): stimulated; proliferation of cultured hSMC cells (hSMC [4]): stimulated

**Q.** For “PDGF-BB: human PDGF B-chain homodimer, unlabeled competitor and 125I tracer [reference compound]”, which “competition for binding to the PDGF alpha-receptor” value [5] is on record?
**A.** competed efficiently

**Q.** Which SMA expression ([6]; four weeks) does the source give for VEGF here?
**A.** remained SMA negative

**Q.** What about the “expression of CD144 and CD31” value ([6]; four weeks) of the same substance?
**A.** still CD144 and CD31 positive

**Q.** And the “adherence of AC133+CD34+ cells” value ([6]; two weeks of stimulation)?
**A.** enhanced

**Q.** And the “expression of EC surface markers CD144 (VE-cadherin) and CD31 (PECAM)” value ([6]; two weeks of stimulation)?
**A.** induced

**Q.** And the “expression of smooth muscle cell marker SMA” value ([6]; two weeks of stimulation)?
**A.** did not become SMA positive

**Q.** What about the “migration of HMVECs” value [7] of the same substance?
**A.** stimulated

**Q.** And the EC proliferation (HMVEC)?
**A.** highly stimulated

**Q.** What about the “distance over which microvessels grew out” value (aortic rings; all concentrations, day 9, versus control) of the same substance?
**A.** increased

**Q.** And the “number and emigration of perivascular fibroblast-like cells” value (aortic rings; day 9, versus control)?
**A.** in effective

**Q.** What about the “number of sprouting microvessels” value (aortic rings) of the same substance?
**A.** increased

**Q.** And the hSMC migration (hSMC [3])?
**A.** no effect
